Like-named read-outs stand apart in the source and are kept apart here.
Legend:
PDE4A = PDE4A (Homo sapiens, UniProt P27815); test: in vitro enzyme assay PDE4A (Table 7); type: biochemical; conditions: 2 micromolar compound; read-out: percent of PDE activity present, PDE4A
PDE4B = PDE4B (Homo sapiens, UniProt Q07343); test: in vitro enzyme assay PDE4B (Table 7); type: biochemical; conditions: 2 micromolar compound; read-out: percent of PDE activity present, PDE4B
PDE4D = PDE4D (Homo sapiens, UniProt Q08499); test: in vitro enzyme assay PDE4D (Table 7); type: biochemical; conditions: 2 micromolar compound; read-out: percent of PDE activity present, PDE4D
Chain of PDE4D (Q08499 whole entry): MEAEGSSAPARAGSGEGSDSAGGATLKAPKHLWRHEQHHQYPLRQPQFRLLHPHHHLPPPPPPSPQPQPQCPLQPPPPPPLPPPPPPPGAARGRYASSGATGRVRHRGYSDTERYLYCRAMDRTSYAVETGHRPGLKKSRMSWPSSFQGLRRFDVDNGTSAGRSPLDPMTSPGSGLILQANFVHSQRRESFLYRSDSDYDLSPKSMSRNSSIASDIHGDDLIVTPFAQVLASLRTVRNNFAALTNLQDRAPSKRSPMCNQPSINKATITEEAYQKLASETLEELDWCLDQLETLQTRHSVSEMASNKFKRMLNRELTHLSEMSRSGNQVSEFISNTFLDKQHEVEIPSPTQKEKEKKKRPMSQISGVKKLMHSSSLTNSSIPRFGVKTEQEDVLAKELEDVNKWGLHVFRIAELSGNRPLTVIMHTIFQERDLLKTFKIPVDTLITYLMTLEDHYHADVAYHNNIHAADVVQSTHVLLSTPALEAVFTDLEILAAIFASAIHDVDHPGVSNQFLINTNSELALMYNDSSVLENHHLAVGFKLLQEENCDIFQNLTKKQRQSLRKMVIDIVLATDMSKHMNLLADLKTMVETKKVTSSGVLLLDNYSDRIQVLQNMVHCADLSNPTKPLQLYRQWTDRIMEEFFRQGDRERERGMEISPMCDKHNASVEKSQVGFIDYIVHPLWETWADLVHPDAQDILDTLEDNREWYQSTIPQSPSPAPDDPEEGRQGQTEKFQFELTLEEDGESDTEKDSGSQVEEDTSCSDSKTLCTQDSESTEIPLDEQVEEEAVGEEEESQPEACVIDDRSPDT

PDE7A = PDE7A (Homo sapiens, UniProt Q13946); test: in vitro enzyme assay PDE7A; type: biochemical; set-up: made in house; host or cells: E. coli; conditions: 2 micromolar compound; read-out: percent of PDE activity present, PDE7A
Chain of PDE7A (Q13946 whole entry): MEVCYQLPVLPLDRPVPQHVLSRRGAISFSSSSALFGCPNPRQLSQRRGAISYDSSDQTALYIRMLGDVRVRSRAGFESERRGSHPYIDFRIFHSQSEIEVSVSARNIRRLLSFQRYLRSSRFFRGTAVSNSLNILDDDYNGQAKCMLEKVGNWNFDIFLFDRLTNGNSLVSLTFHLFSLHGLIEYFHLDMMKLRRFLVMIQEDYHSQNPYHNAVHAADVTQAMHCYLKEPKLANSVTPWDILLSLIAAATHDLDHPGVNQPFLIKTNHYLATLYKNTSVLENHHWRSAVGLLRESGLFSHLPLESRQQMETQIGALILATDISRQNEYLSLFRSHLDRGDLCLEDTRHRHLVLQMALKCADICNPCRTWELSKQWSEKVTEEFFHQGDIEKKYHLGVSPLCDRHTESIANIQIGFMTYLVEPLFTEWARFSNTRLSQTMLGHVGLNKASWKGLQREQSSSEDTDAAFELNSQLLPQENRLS

[1] = tested on: PDE4A, PDE4B, PDE4D, PDE7A, PDE7B, PDE8A, PDE3A; test: Summary of PDE inhibitor profile; set-up: key: (1): Strong PDE7A inhibitor, weak to moderate PDE4A, 4B inhibitor; (2): Strong PDE7A and PDE4s (including PDE4D) inhibitor; (3): Strong PDE7A inhibitor; conditions: overall classification, Table 18 footnotes
PDE4B2 [2] = molecular target: T1, PDE4B2 (Homo sapiens, UniProt Q07343); test: 5FOA growth assay in fission yeast strain expressing PDE4B2; type: cell-based; set-up: targets used in the assays are full-length proteins (as opposed to simply the catalytic domain); expressed in transfected cells; host or cells: Schizosaccharomyces pombe; conditions: OD600 0.6
T1 sequence (Q07343 1-564 isoform Q07343-2, species assumed): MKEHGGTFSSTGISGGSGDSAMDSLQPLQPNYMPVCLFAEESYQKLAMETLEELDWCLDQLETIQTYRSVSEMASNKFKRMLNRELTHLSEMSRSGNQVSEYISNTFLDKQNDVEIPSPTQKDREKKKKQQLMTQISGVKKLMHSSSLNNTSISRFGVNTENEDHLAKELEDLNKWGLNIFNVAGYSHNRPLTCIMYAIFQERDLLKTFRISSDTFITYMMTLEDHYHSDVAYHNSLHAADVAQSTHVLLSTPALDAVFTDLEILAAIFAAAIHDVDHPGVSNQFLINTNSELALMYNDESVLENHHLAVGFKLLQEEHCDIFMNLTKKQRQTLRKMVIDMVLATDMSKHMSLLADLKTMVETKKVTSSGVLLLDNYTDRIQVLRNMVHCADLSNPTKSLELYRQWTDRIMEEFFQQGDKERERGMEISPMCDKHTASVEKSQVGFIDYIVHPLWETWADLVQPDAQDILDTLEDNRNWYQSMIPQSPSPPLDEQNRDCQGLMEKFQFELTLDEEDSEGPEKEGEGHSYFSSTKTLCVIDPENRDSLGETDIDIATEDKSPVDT
Experimental: (§1) Cells were pregrown in EMM medium [MP Biomedicals (Solon, Ohio), 3% glucose, filter-sterilized to avoid carmelization, which would introduce variability into the optical density of the medium] containing from 0 mM to 2.5 mM cAMP (or either 0.5 mM or 1.0 mM cGMP). This was to repress expression of the fbp1-ura4 reporter prior to exposure of cells to 5FOA medium. Cells were grown at 30° C. to exponential phase (approximately 10^7 cells/ml). […] Starting cell concentrations ranged from 0.5×10^5 to 4×10^5 cells/ml depending on the screening strain. […] Other positive control dishes contained 5 mM cAMP in the 5FOA medium for PDEs that lack appropriate control compounds. Cultures were grown for 48 hours at 30° C., sealed in an airtight container with moist paper towels to prevent evaporation. Optical densities (OD600) of cultures were measured using a microplate reader. Bioinformatic analysis of the results to determine composite Z scores was performed as previously described (1, 3).

PDE4D2 [3] = molecular target: T2, PDE4D2 (Homo sapiens, UniProt Q08499); test: cAMP response in yeast strain expressing PDE4D2; type: cell-based
T2 construct: targets used in the assays are full-length proteins (as opposed to simply the catalytic domain); expressed in transfected cells; host or cells: Schizosaccharomyces pombe
T2 sequence (Q08499 303-809): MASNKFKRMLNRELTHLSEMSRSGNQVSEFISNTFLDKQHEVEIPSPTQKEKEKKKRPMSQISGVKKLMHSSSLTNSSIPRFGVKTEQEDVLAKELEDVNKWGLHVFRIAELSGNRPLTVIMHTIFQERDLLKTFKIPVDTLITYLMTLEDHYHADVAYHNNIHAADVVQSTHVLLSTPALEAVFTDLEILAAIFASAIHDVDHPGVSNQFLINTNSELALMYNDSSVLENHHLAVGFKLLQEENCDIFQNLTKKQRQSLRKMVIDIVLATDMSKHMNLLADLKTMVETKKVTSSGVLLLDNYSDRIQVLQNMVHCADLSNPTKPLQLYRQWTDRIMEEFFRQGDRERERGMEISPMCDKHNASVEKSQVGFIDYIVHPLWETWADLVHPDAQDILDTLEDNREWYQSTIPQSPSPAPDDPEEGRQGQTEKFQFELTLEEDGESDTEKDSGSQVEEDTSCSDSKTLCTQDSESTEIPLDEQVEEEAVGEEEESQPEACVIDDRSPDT

U937 cells = test: TNF alpha release by LPS-treated U937 cells; type: cell-based; conditions: for TNF alpha, % vehicle control: 10 uM cmpd, 0 uM BC30
PDE4B2 [4] = molecular target: T1, PDE4B2; test: in vitro enzyme assay, E. coli expressed and purified PDE4B2; type: biochemical; set-up: targets used in the assays are full-length proteins (as opposed to simply the catalytic domain); conditions: read-out: IC50 (or AC200), PDE4B2
PDE7B [5] = molecular target: T3, PDE7B (Homo sapiens, UniProt Q9NP56); test: in vitro enzyme assay, PDE7B catalytic domain from E. coli, hydrolysis of cAMP to AMP; type: biochemical; set-up: The PDE7B catalytic domain was expressed in and purified from E. coli; made in house; host or cells: E. coli
Experimental: The PDE7B catalytic domain was expressed in and purified from E. coli and tested for activity in an in vitro enzyme assay, measuring the hydrolysis of cAMP to AMP. Four dilutions of the enzyme preparation were tested at various compound concentrations (X axis). The percent of cAMP hydrolyzed is plotted on the Y axis.
Target sequence in this assay (Q9NP56 97-420 limits assumed, species assumed): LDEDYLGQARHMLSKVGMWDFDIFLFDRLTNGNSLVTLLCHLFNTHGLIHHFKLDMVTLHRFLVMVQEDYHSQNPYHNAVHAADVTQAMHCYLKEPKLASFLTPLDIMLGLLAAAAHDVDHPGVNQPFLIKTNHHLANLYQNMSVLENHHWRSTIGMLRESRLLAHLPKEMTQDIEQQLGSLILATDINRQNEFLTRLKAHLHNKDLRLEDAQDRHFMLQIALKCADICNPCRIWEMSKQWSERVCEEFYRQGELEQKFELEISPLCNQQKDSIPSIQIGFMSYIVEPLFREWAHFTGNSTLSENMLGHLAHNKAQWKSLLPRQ

PDE4D2 [6] = molecular target: T2, PDE4D2; test: 5FOA growth assay in fission yeast strain expressing PDE4D2; type: cell-based; conditions: OD600 0.6; read-out: ED50 for 5FOA growth assays, PDE4D2
Experimental: as §1

PDE7B [7] = molecular target: T3, PDE7B; test: 5FOA growth assay in fission yeast strain expressing PDE7B; type: cell-based; set-up: targets used in the assays are full-length proteins (as opposed to simply the catalytic domain); expressed in transfected cells; host or cells: Schizosaccharomyces pombe; conditions: OD600 0.6; read-out: ED50 for 5FOA growth assays, PDE7B
Experimental: PDE inhibition allows growth in 5FOA medium as measured by optical density after 48 hours incubation at 30° C. Compound BC12 and six structural analogs were tested for growth stimulation.
Cells were pregrown in EMM medium [MP Biomedicals (Solon, Ohio), 3% glucose, filter-sterilized to avoid carmelization, which would introduce variability into the optical density of the medium] containing from 0 mM to 2.5 mM cAMP (or either 0.5 mM or 1.0 mM cGMP). This was to repress expression of the fbp1-ura4 reporter prior to exposure of cells to 5FOA medium. Cells were grown at 30° C. to exponential phase (approximately 10^7 cells/ml). Cells were collected by centrifugation and resuspended in 5FOA medium, and 25 μl were transferred to 384-well microtiter dishes (untreated, with flat clear bottoms) that had been pre-filled with 25 μl 5FOA medium and pre-pinned with 100 nl of compounds (stock solutions were generally 10 mM). Starting cell concentrations ranged from 0.5×10^5 to 4×10^5 cells/ml depending on the screening strain. […] Other positive control dishes contained 5 mM cAMP in the 5FOA medium for PDEs that lack appropriate control compounds. Cultures were grown for 48 hours at 30° C., sealed in an airtight container with moist paper towels to prevent evaporation. Optical densities (OD600) of cultures were measured using a microplate reader. Bioinformatic analysis of the results to determine composite Z scores was performed as previously described (1, 3).
Target sequence in this assay (Q9NP56 whole entry, species assumed, the tested form may be a part): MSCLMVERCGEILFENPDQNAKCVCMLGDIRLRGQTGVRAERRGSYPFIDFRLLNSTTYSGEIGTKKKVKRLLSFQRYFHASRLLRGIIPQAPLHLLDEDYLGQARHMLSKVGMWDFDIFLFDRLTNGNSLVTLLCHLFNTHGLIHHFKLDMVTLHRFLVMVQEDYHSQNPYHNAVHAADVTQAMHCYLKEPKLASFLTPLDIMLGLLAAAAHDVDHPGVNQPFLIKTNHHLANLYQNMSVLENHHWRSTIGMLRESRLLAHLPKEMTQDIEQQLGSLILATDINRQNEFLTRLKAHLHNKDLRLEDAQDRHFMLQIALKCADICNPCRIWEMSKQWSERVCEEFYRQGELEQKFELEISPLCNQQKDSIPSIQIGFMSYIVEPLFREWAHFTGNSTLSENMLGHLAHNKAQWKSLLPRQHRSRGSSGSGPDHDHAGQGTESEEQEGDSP

PDE4D3 = molecular target: T4, PDE4D3 (Homo sapiens, UniProt Q08499); test: cAMP response in yeast strain expressing PDE4D3; type: cell-based
T4 construct: targets used in the assays are full-length proteins (as opposed to simply the catalytic domain); expressed in transfected cells; host or cells: Schizosaccharomyces pombe, PDE gene integrated in place of cgs2
T4 sequence (Q08499 1-673 isoform Q08499-2): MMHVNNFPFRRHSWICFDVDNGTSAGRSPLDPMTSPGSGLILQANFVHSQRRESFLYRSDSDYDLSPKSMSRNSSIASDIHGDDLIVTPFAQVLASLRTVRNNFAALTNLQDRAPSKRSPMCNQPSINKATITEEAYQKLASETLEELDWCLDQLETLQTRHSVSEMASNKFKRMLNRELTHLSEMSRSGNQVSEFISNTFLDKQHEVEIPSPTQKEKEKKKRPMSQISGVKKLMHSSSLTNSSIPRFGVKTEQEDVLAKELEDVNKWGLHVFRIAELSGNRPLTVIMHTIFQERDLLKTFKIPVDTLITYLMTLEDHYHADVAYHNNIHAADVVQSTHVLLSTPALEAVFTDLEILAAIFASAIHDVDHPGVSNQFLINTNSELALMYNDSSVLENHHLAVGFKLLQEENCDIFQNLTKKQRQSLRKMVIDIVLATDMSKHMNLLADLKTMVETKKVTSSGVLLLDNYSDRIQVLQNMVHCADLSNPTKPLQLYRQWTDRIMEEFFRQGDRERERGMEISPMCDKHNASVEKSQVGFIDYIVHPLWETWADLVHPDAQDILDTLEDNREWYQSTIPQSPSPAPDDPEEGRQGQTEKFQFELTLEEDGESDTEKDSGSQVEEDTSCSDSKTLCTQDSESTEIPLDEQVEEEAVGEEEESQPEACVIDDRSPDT

Chain of PDE4A (P27815 whole entry, species assumed): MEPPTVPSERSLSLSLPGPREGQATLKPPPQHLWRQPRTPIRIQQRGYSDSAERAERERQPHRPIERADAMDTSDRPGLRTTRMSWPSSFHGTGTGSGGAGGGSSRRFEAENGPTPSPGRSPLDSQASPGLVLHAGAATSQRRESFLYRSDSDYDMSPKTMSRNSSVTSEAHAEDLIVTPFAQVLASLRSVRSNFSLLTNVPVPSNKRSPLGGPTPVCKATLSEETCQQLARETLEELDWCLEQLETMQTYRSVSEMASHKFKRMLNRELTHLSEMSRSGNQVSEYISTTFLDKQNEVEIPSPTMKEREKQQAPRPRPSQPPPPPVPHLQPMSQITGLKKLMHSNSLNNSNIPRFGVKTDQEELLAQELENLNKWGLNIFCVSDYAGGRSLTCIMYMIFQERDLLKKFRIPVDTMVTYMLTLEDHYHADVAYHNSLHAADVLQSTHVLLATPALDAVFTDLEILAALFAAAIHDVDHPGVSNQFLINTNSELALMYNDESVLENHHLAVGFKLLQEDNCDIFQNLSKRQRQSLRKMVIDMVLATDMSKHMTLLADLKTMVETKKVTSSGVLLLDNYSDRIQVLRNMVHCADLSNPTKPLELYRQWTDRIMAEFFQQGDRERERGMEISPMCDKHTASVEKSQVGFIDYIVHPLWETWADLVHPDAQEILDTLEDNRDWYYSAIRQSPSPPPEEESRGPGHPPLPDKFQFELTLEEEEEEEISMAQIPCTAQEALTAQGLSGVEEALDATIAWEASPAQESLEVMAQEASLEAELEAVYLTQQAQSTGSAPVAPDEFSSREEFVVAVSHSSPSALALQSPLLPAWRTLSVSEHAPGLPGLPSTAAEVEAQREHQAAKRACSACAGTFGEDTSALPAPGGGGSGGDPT

## Cc1c(C(=O)Nc2ccc(F)cc2F)sc2ncnc(N(C)c3ccccc3)c12 [Compound 58-9]
PDE4A
  remaining activity at 2 µM: 84%
PDE4B
  remaining activity at 2 µM: 72%
PDE4D
  remaining activity at 2 µM: 77%
PDE7A
  remaining activity at 2 µM: 52%

## Cc1ccc2c(c1)CCC1CC(=O)CC[C@]21C (stereo partly drawn) [Compound 2158J12]
[1]
  PDE inhibitor profile (Table 18): 2158J12 (2)

## CCC1CCc2c(sc3ncnc(N4CCOCC4)c23)C1 (stereo not drawn) [BC33]
PDE4B2 [2]; value marked (m), read-out: ED50 for 5FOA growth assays, PDE4B2 (m)
  EC50: 1.7 µM

## N#Cc1sc2sc(C#N)c(-c3ccco3)c2c1N [Compound 30]
PDE4D2 [3]; Table 16, unit not given
  cAMP Response, 4D2: ND ND ND 7.5 ND
U937 cells; 3 HOURS
  TNF: 3317 pg/mL
  TNF, % EtOH cntrl: 68.7%
U937 cells; 20 HOURS
  TNF: 7481 pg/mL
  TNF, % EtOH cntrl: 54.7%
PDE4B2 [4]
  IC50: ~2 µM
PDE7B [5]; AC200 = [Compound] that doubles PDE activity, read-out: IC50 (or AC200), PDE7B
  IC50: 12 µM

## COc1ccc2c(c1)[C@@]1(C)CCC[C@](C)(CO)C1CC2 (stereo partly drawn) [Compound 2067M03]
[1]
  PDE inhibitor profile (Table 18): 2067M03 (1)

## Cc1sc2ncnc(Nc3ccccc3)c2c1C [BC64]
PDE4D2 [6]
  EC50: > 200 µM
PDE7B [7]
  EC50: > 200 µM
PDE4B2 [2]; read-out: ED50 for 5FOA growth assays, PDE4B2
  EC50: > 200 µM

## Cc1c(C(=O)Nc2ccc(F)cc2F)sc2ncnc(N3CCC(C)CC3)c12 [BC58]
U937 cells
  TNF alpha reduction, conclusion in words: good PDE4 inhibitor activity
PDE7B [5]; 2 uM compound
  PDE7B, 2 uM cpm: 15093 cpm

## CCN(CC)c1ncnc2sc3c(c12)CCCC3 [BC44]
PDE4D2 [6]
  EC50: 140 µM
PDE7B [7]
  EC50: 2.1 µM

## COC(=O)C1=C(C)N(c2ccccc2Cl)C(=O)/C1=C\c1cccs1 [Compound 27]
PDE4D2 [3]
  cAMP Response (% rolipram), 4D2: ND ND ND 11.00 ND % rolipram
PDE4D3
  cAMP Response (% rolipram), 4D3: 8.00 % rolipram
U937 cells; after 3 h.
  TNF alpha, % vehicle control: 75.3%
U937 cells; after 20 h.
  TNF alpha, % vehicle control: 78.3%

## COC(=O)C1=C(C)N(C2CCCCC2)C(=O)/C1=C\c1cccs1 [Compound 22]
PDE4D2 [3]
  cAMP Response (% rolipram), 4D2: ND ND ND 34.00 ND % rolipram
PDE4D3
  cAMP Response (% rolipram), 4D3: 12.00 % rolipram

— patent publication US20100227853A1, “INHIBITORS OF CYCLIC AMP PHOSPHODIESTERASES” (Trustees of Boston College, priority 2008, published 2010)
